# Assays:
# CXCR4 = CXCR4 (Homo sapiens, UniProt P61073); assay: Competition with 125I-SDF-1α binding to CEMx174 cells; parameters: host or cells: CEMx174 (174xCEM); settings: room temperature, 0.1% sodium azide, FIG. 7B, 7C
# Protocol: FIGS. 7A through 7C depicts the inhibition of chemokine receptor ligand binding by peptide pre-treatment. FIG. 7A. Effect of pre-treatment with peptides 15K and 15D on the binding of MIP-1β to SupT1/CCR5 cells; FIG. 7B. Effect of pre-treatment with peptides 15K and 1SD on the binding of SDF-1α to CEMx174 cells; and FIG. 7C. Effect of pre-treatment with 15K and control peptide 15GIG on the binding of SDF-1α to CEmx174 cells. Binding studies were performed as described in Materials and Methods.
# Binding assays were performed with HEK-CCR5 or HEK CXCR4 in triplicate by adding unlabeled competitor (anti-coreceptor binding peptide or control chemokine) and radiolabeled chemokine, 0.2 ng/ml (^125I-MIP-1β or SDF-1α, specific activity 2000 Ci/mmol, NEN Life Science Products) to a cell suspension (4×10^5 cells in 200 μl) in RPMI 1640 supplemented with 1% bovine serum albumin and 25 mM HEPES pH 8.0 (binding medium). Cells were then incubated at 22° C. for 40 min with continuous rotation. After incubation cells were transferred to the tubes containing 800 μl of 10% sucrose in PBS and harvested by centrifugation. The supernatant was aspirated and the cell-associated radioactivity was measured using a 1272 Wallac gamma counter. Binding assays were performed with the 174xCEM and Sup-T1 cells expressing CCR5 in duplicates by adding unlabeled competitor (peptide or control chemokine) and radiolabeled chemokine, 0.2 ng/ml (^125I-MIP-1β or ^125I-SDF-1α, specific activity 2000 Ci/mmol, NEN life Science Products) to 300 μl cell suspension (4×10^6 cells/ml) in RPMI 1640 supplemented with 1% bovine serum albumin, 0.1% sodium azide and 25 mM HEPES pH 8.0 (binding medium). Cells were then incubated at 22° C. for 30 min with continuous rotation. After incubation cells were transferred to the tubes containing 800 μl of 10% sucrose in PBS and harvested by centrifugation, the supematant was aspirated and the cell-associated radioactivity was measured using a 1272 Wallac gamma counter. The data were analyzed by nonlinear regression using the computer program GraphPad Prizm 3.0. […]
# HIV-1JRFL = HIV-1JRFL infection of monocyte-derived macrophages, p24 ELISA; type: cell-based; settings: for concentration at which significant inhibition of infection was exhibited (as low as): HIV-1JRFL, monocyte-derived macrophages; for inhibition of HIV-1JRFL infection of monocyte-derived macrophages (p24): peptide 1 hr before virus, p24 after 72 hr, FIG. 3
# Protocol: Monocyte-derived macrophages were treated with the designated concentrations of the indicated peptide for a period of 1 hr prior to addition of HIV-1JRFL. After 2 hr, cells were washed, and viral replication was determined after 72 hr by p24 analysis. Results are representative of 4 independent experiments.
# PBMCs were obtained from whole blood of normal donors and isolated by Ficoll-Paque Plus (Pharmacia Biotech, Piscataway, N.J.) density gradient centrifugation, and plated at a cell density of 2×10^6 cells/ml. Monocyte-derived macrophages (MDM) were generated from adherent human peripheral blood mononuclear cells by culture for 7 days with M-CSF (100 ng/ml). Cultures were maintained in RPMI-1640 medium (Life Technologies, Rockville, Md.) supplemented with 10% heat-inactivated endotoxin-free FCS (Hyclone, Logan, Utah), 10 μg/ml gentamicin, and 1 mM glutamine. Cells were treated with designated concentrations of the exemplary peptides 15K or 15D, and after 1 hr cells were infected with HIV-1IIIB (T cell tropic) or HIV-1JRFL (monocyte tropic) at an multiplicity of infection (MOI) of 0.1. After 2 hr, cells were washed, and cultured for additional 48-72 hr, followed by analysis of HIV replication as determined by quantification of accumulated p24 in the supernatant. The production of p24 was determined by conventional sandwich ELISA, using ELISA plates pre-coated with capture anti-p24 antibodies provided by the AIDS Vaccine Program (SAIC Frederick, NCI-FCRDC, Frederick, Md.). The captured p24 antigen was detected using rabbit anti-HIV-1 anti-p24 antibody, and a secondary goat anti-rabbit IgG (peroxidase-labeled) antibody. The captured p24 protein was detected using a 3,3′,5,5′-tetramethylbenzidine and hydrogen peroxide detection system (KPL Laboratories, Gaithersburg, Md.). The reaction was read spectrophotometrically at 450 nm. No cytotoxicity was detectable following treatment of PBMC with the peptides even at a concentration of 100 μg/ml.
# The results described in the preceding Examples indicate that the 15K and 15D peptides effectively block the ability of CCR5 to serve as a receptor to mediate chemotactic responses. Additional experiments were thus carried out to determine the capacity of these peptides to inhibit coreceptor activity mediating cellular entry and infection by HIV-1JRFL (a monocyte-tropic HIV strain), using peripheral blood monocyte-derived macrophages.
# CXCR4, sequence (P61073 whole entry): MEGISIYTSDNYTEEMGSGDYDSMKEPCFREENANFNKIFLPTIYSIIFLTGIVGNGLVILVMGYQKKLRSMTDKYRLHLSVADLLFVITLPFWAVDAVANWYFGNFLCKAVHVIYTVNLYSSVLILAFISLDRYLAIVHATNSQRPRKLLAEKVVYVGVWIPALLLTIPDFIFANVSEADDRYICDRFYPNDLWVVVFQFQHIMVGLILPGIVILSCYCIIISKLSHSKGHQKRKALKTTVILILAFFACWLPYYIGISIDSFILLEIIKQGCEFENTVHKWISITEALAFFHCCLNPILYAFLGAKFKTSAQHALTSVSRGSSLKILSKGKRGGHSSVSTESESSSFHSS
Substance,inhibition of SDF-1α binding to CXCR4 (CXCR4),concentration at which significant inhibition of infection was exhibited (as low as) (HIV-1JRFL) [ng/mL],inhibition of HIV-1JRFL infection of monocyte-derived macrophages (p24) (HIV-1JRFL)
IRKAHCNISRAKWND [Peptide 15K],competitively inhibited chemokine binding,10,significantly reduced monocyte lineage target cell infection
I R K A H C N I S R A D W N D [Peptide 15D],competitively inhibited chemokine binding,10,significantly reduced monocyte lineage target cell infection

# Reference: patent US20060116325A1, “Methods and compositions for inhibiting hiv-coreceptor interactions” (priority 2001, published 2006)
